Results taken from the NIST ThermoML archive (doi:10.1021/acs.jced.6b00516).

Assay: wn = mass fraction of the nth substance listed
Settings: 102 kPa, Liquid, Vibrating tube method

CCCCC1CCCCC1 [butylcyclohexane] + Cc1ccccc1
mass density [kg/m3]
Settings	w1 = 0.1002	w1 = 0.2175	w1 = 0.3001	w1 = 0.3999	w1 = 0.5	w1 = 0.6001	w1 = 0.6995	w1 = 0.8001	w1 = 0.8996
293.15 K	858.58	849.42	843.23	835.97	829.25	822.67	816.44	810.43	804.75
303.15 K	849.47	840.53	834.5	827.42	820.88	814.48	808.43	802.58	797.08
313.15 K	840.29	831.58	825.72	818.82	812.46	806.25	800.37	794.7	789.37
323.15 K	831.04	822.57	816.86	810.17	803.99	797.96	792.27	786.78	781.62
333.15 K	821.72	813.48	807.94	801.44	795.45	789.62	784.11	778.81	773.83
343.15 K	812.2	804.3	798.8	792.6	786.8	781.3	775.9	770.7	765.9
353.15 K	802.7	795.1	789.7	783.7	778.1	772.8	767.5	762.6	758

CCCCC1CCCCC1 [butylcyclohexane] + CCCCCCCCCCCCCCCC
mass density [kg/m3]
Settings	w1 = 0.1002	w1 = 0.2	w1 = 0.3001	w1 = 0.3998	w1 = 0.4998	w1 = 0.6001	w1 = 0.7	w1 = 0.7999	w1 = 0.8998
293.15 K	775.85	778.23	780.67	783.16	785.72	788.34	791.01	793.72	796.48
303.15 K	768.9	771.24	773.65	776.08	778.59	781.15	783.74	786.38	789.06
313.15 K	761.94	764.25	766.6	768.99	771.43	773.92	776.44	779	781.6
323.15 K	754.99	757.24	759.55	761.87	764.25	766.67	769.12	771.6	774.12
333.15 K	748.02	750.22	752.47	754.73	757.04	759.39	761.76	764.16	766.6
343.15 K	741.1	743.2	745.35	747.5	749.8	752.1	754.35	756.6	759
353.15 K	734.1	736.1	738.3	740.3	742.5	744.7	746.9	749.1	751.4
